Measurements reported in patent US10954216B2, “BMP-signal-inhibiting compound” (RIKEN, priority 2016, dated 2021).

tested on: BMP signal in MDA-231-D-BREFluc/Rluc cells; assay: BMP signal inhibitory effect (AlphaScreen SureFire SMAD1 p-Ser463/465, BMP-6 stimulation); type: cell-based; conditions: not given
Protocol: BMP Signal Inhibitory Effect
A BMP signal inhibitory activity of a compound of the present invention was evaluated according to the following method.
MDA-231-D-BREFluc/Rluc cells prepared according to the method described in Y. Katsuno et al., Oncogene, 27, 6322 (2008) were incubated at 37° C. for 2 hours together with test compounds, and BMP-6 (commercially available from R&D System, 507-BM-020) was then added thereto, and the mixture was additionally incubated at 37° C. for 30 minutes. A Lysis Buffer and Acceptor mix of AlphaScreen SureFire SMAD1 (p-Ser463/465) assay kit (commercially available from Perkin Elmer, TGRSM1S10K) were sequentially added thereto, the mixture was incubated at room temperature for 2 hours, and AlphaScreen Protein A kit (commercially available from Perkin Elmer, 6760617) was then added thereto, and standard AlphaScreen settings of Alpha Technology—compatible plate reader (commercially available from Perkin Elmer, EnSpire) was used for measurement.

| Structure (SMILES) | IC50 |
| --- | --- |
| CCn1cc(-c2ccnc(Nc3ccc(C(=O)N4CC5CCC(C4)N5C)cc3)n2)c(-c2cccnc2)n1 [Example 117, (4-((4-(1-Ethyl-3-(pyridin-3-yl)-1H-pyrazol-4-yl)pyrimidin-2-yl)amino)phenyl) (8-methyl-3,8-diazabicyclo [3.2.1]octan-3-yl)methanone] | 12 nM |

same assay, conditions: BMP-6 stimulated MDA-231-D-BREFluc/Rluc cells, phospho-SMAD1 AlphaScreen; read-out: IC50

| Structure (SMILES) | IC50 |
| --- | --- |
| CCn1cc(-c2ccnc(Nc3cnn(C4CCN(CC(C)(C)O)CC4)c3)n2)c(-c2cccnc2)n1 [Example 54, 1-(4-(4-((4-(1-Ethyl-3-(pyridin-3-yl)-1H-pyrazol-4-yl)pyrimidin-2-yl)amino)-1H-pyrazol-1-yl)piperidin-1-yl)-2-methylpropan-2-ol] | 8.2 nM |
| COCCn1cc(-c2ccnc(Nc3ccc(OC4CN(CC(C)(C)O)C4)cc3)n2)c(-c2cccnc2)n1 [Example 107, 1-(3-(4-((4-(1-(2-Methoxyethyl)-3-(pyridin-3-yl)-1H-pyrazol-4-yl)pyrimidin-2-yl)amino)phenoxy)azetidin-1-yl)-2-methylpropan-2-ol] | 24.4 nM |
| CCn1cc(-c2ccnc(Nc3ccc(N4CCC(C)(N(C)C)CC4)cc3)n2)c(-c2cccnc2)n1 [Example 68, N-(4-(4-(Dimethylamino)-4-methylpiperidin-1-yl)phenyl)-4-(1-ethyl-3-(pyridin-3-yl)-1H-pyrazol-4-yl)pyrimidin-2-amine] | 6.8 nM |
| CCn1cc(-c2ccnc(Nc3ccc(N4CCN5CCC4CC5)cc3)n2)c(-c2cccnc2)n1 [Example 69, N-(4-(1,4-diazabicyclo[3.2.2]nonan-4-yl)phenyl)-4-(1-ethyl-3-(pyridin-3-yl)-1H-pyrazol-4-yl)pyrimidin-2-amine] | 13 nM |
| CCn1cc(-c2ccnc(Nc3ccc(N4CCN(CCOCC5CC5)CC4)cc3)n2)c(-c2cccnc2)n1 [Example 52, N-(4-(4-(2-(Cyclopropylmethoxy)ethyl)piperazin-1-yl)phenyl)-4-(1-ethyl-3-(pyridin-3-yl)-1H-pyrazol-4-yl)Pyrimidin-2-amine] | 13.3 nM |
| CCn1cc(-c2ccnc(Nc3ccc4c(c3)OCCN(CCOC)C4)n2)c(-c2cccnc2)n1 [Example 91, N-(4-(l-Ethyl-3-(pyridin-3-yl)-1H-pyrazol-4-yl)pyrimidin-2-yl)-4-(2-methoxyethyl)-2,3,4,5-tetrahydrobenzo[f][1,4] oxazepin-8-amine] | 21.3 nM |
| CCn1cc(-c2ccnc(Nc3ccc(N4CCN(CCOC)CC4)c(F)c3)n2)c(-c2cccnc2)n1 [Example 18, 4-(1-Ethyl-3-(pyridin-3-yl)-1H-pyrazol-4-yl)-N-(3-fluoro-4-(4-(2-methoxyethyl)piperazin-1-yl)phenyl)pyrimidin-2-amine] | 30.8 nM |

Results, then the molecule that gave them:

| IC50 | Structure (SMILES) |
| --- | --- |
| 18.5 nM | CCn1cc(-c2ccnc(Nc3cccc(N4CCNCC4)c3)n2)c(-c2cccnc2)n1 [Example 158, 4-(1-Ethyl-3-(pyridin-3-yl)-1H-pyrazol-4-yl)-N-(3-(piperazin-1-yl)phenyl)pyrimidin-2-amine] |
| 22.7 nM | CCn1cc(-c2ccnc(Nc3ccc4c(c3)NCCC4)n2)c(-c2cccnc2)n1 [Example 170, N-(4-(1-Ethyl-3-(pyridin-3-yl)-1H-pyrazol-4-yl)pyrimidin-2-yl)-1,2,3,4-tetrahydroquinolin-7-amine] |
| 16.7 nM | CC(C)(O)Cn1cc(-c2ccnc(Nc3ccc4c(c3)CCN(C3COC3)C4)n2)c(-c2cccnc2)n1 [Example 131, 2-Methyl-1-(4-(2-((2-(oxetan-3-yl)-1,2,3,4-tetrahydroisoquinolin-6-yl)amino)pyrimidin-4-yl)-3-(pyridin-3-yl)-1H-pyrazol-1-yl)propan-2-ol] |
| 47.6 nM | CCn1cc(-c2ccnc(Nc3ccc(N4CCN(CC(=O)O)CC4)cc3)n2)c(-c2cccnc2)n1 [Example 173, 2-(4-(4-((4-(1-Ethyl-3-(pyridin-3-yl)-1H-pyrazol-4-yl)pyrimidin-2-yl)amino)phenyl)piperazin-1-yl)acetic acid] |
| 9.1 nM | CCn1cc(-c2ccnc(Nc3ccc(-n4cnc(N5CCN(C)CC5)n4)cc3)n2)c(-c2cccnc2)n1 [Example 180, 4-(1-ethyl-3-(pyridin-3-yl)-1H-pyrazol-4-yl)-N-(4-(3-(4-methylpiperazin-1-yl)-1H-1,2,4-triazol-1-yl)phenyl)pyrimidin-2-amine] |
